In paper PMC10726354, “Design, Synthesis, and Biological Evaluation of Small-Molecule-Based Radioligands with Improved Pharmacokinetic Properties for Imaging of Programmed Death Ligand 1” (Journal of Medicinal Chemistry, 2023):
“And” between values parts separate entries of the source, which are not always exact repeats. Equal values may be shown once.

How the values were obtained:
PD-L1 = target: T1, PD-L1 (Homo sapiens, UniProt Q9NZQ7); assay: Real-time radioligand binding (LigandTracer) on PC3 PD-L1 cells; settings: for fold change of real-time binding affinity in presence vs absence of BSA: in either direction; for Kd: real-time binding
T1 construct: expressed in transfected cells; host or cells: PC3 cells (human prostate carcinoma), stably transduced
Experimental: Real-time radioligand binding using the ligand tracer platform was performed, similar to our previously reported tracer candidates. As we aimed at reducing the albumin binding of the herein presented compounds, we performed measurements in the presence or absence of a mouse physiological concentration of BSA (2.5 g/dL).
For real-time binding to assess kinetics (association rate constant ka and dissociation rate constant kd) and dissociation constant (KD), LigandTracer (Yellow, Ridgeview Instruments AB, Sweden) was employed. Approximately 1.2 × 10^6 cells (in 3 mL medium) were seeded to one side of a Petri dish (Nunc) 1 day prior to experiments as described before.[45] Binding was then performed at room temperature (using CO2-independent medium, Gibco #18045088, Thermo Fisher Germany) with or without BSA (2.5%). First, association was determined by incubation with two concentrations (10 and 40 nM, 90 min each) of the ^64Cu-labeled PD-L1 ligands. Dissociation was then assessed by replacement with fresh medium for at least 2 h. Data were acquired in decay-corrected counts per second (CPS), and binding data were then evaluated using TraceDrawer (1.9.2, Ridgeview Instruments AB, Sweden). Traces were inspected for spikes and irregularities and then normalized to their own baseline (=0%) and highest value (=100%). Data were then fitted using a one-to-one interaction, accounting for the bulk effect.

[1] = log D7.4 shake flask method, n-octanol/PBS; format: physicochemical; settings: n-octanol/PBS pH 7.4, shake flask; mean ± SD, three experiments
Experimental: For assessing the lipophilicity of the ^64Cu-labeled PD-L1 radioligands, distribution coefficients (log D7.4 values) were determined using the shake flask method between n-octanol and PBS buffer (pH 7.4).
n-Octanol/water distribution coefficients were determined by the shake-flask method. The experiments for each radioligand was performed in triplicate. 30 μL of the reaction mixture was added to a 1.5 mL Eppendorf tube, which contained 570 μL of PBS (pH 7.4) and 600 μL n-octanol. After shaking at room temperature at 1500 rpm for 5 min, the mixture was centrifugated. An aliquot for each phase was carefully withdrawn, and the count rates were measured using a γ-counter (ISOMED2160 sodium iodide crystal detector). The mean values were calculated, corrected for the background activity, and the log D7.4 value was calculated with following formula [drawing 1]

[2] = Metabolite analysis in vivo; set-up: species or system mouse; settings: 4 h postinjection
[3] = medium only (no BSA), n = 2, mean ± S.D.
[4] = medium only (no BSA), n = 2, mean ± S.D., room temperature

T1 sequence (Q9NZQ7 19-290): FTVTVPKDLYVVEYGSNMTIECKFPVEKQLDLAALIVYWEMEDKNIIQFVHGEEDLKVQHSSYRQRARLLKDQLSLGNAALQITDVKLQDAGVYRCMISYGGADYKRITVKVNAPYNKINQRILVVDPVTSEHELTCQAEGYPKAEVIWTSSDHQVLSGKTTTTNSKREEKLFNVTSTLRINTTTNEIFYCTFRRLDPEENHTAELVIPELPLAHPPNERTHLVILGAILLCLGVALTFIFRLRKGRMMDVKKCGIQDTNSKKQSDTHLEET

Row | SMILES | fold change of real-time binding affinity in presence vs absence of BSA (PD-L1) | Bmax [normalized (%)] (PD-L1; medium + 2.5% BSA, n = 1) | ka (association rate constant) (PD-L1; medium + 2.5% BSA, n = 1) | Bmax [normalized (%)] (PD-L1; [3]) | ka (association rate constant) (PD-L1; [4]) | Kd (PD-L1; medium + 2.5% BSA, n = 1) | Kd (PD-L1; [3]) | log D7.4 [1] | stability in circulation (metabolite analysis) [2]
1 | Cc1c(COc2cc(OCc3cncc(C#N)c3)c(CN[C@@H](CS(=O)(=O)O)C(=O)NCCS(=O)(=O)O)cc2Cl)cccc1-c1cccc(OCc2cn(CCCN3CCN(C(=O)[C@H](CS(=O)(=O)O)NC(=O)CC[C@H](C(=O)O)N4CCN(CC(=O)O)CCN(CC(=O)O)CC4)CC3)nn2)c1C.[64Cu+2] [[^64Cu]Cu-1] | ≤ 2 fold | 76.2% | 1410 M/s | 186 ± 40.2% | (2.85 ± 0.07) × 10^3 (M s)^−1 | 119 nM | 60 nM and 60.2 nM | – | –
2 | Cc1c(COc2cc(OCc3cncc(S(C)(=O)=O)c3)c(CN[C@@H](CS(=O)(=O)O)C(=O)NCCP(=O)(O)O)cc2Cl)cccc1-c1cccc(OCc2cn(CCCN3CCN(C(=O)[C@H](CP(=O)(O)O)NC(=O)CC[C@H](C(=O)O)N4CCN(CC(=O)O)CCN(CC(=O)O)CC4)CC3)nn2)c1C.[64Cu+2] [[^64Cu]Cu-6] | ≤ 2 fold | 65.3% | 3590 M/s | 107 ± 7.16% | (5.30 ± 0.52) × 10^3 (M s)^−1 | 41.4 nM | 22 nM and 22.2 nM | –4.28 ± 0.08 | –
3 | Cc1c(COc2cc(OCc3cncc(S(C)(=O)=O)c3)c(CN[C@@H](CS(=O)(=O)O)C(=O)NCCP(=O)(O)O)cc2Cl)cccc1-c1cccc(OCc2cn(CCCN3CCN(C(=O)CC[C@H](C(=O)O)N4CCN(CC(=O)O)CCN(CC(=O)O)CC4)CC3)nn2)c1C.[64Cu+2] [[^64Cu]Cu-4] | – | 883% | 230 M/s | 846 ± 451% | (0.56 ± 0.35) × 10^3 (M s)^−1 | 744 nM | 201 ± 149 nM | –3.07 ± 0.02 | –
4 | Cc1c(COc2cc(OCc3cncc(S(C)(=O)=O)c3)c(CN[C@@H](CS(=O)(=O)O)C(=O)NCCP(=O)(O)O)cc2Cl)cccc1-c1cccc(OCc2cn(CCCN3CCN(C(=O)[C@H](CS(=O)(=O)O)NC(=O)CC[C@H](C(=O)O)N4CCN(CC(=O)O)CCN(CC(=O)O)CC4)CC3)nn2)c1C.[64Cu+2] [[^64Cu]Cu-5] | ≤ 2 fold | 219% | 1130 M/s | 446 ± 274% | (1.14 ± 0.60) × 10^3 (M s)^−1 | 100 nM | 110 ± 53 nM | – | –
5 | Cc1c(COc2cc(OCc3cncc(S(C)(=O)=O)c3)c(CN[C@@H](CS(=O)(=O)O)C(=O)NCCS(=O)(=O)O)cc2Cl)cccc1-c1cccc(OCc2cn(CCCN3CCN(C(=O)[C@H](CS(=O)(=O)O)NC(=O)CC[C@H](C(=O)O)N4CCN(CC(=O)O)CCN(CC(=O)O)CC4)CC3)nn2)c1C.[64Cu+2] [[^64Cu]Cu-3] | – | 46.6% | 2970 M/s | 95.9 ± 6.49% | (6.59 ± 0.50) × 10^3 (M s)^−1 | 54.3 nM | 21 nM and 20.9 nM | – | overall stability of the compound in circulation
